Assay [1] has as its target T1, UGT1A1 (Homo sapiens, UniProt P22309).
T1 sequence (P22309 26-533): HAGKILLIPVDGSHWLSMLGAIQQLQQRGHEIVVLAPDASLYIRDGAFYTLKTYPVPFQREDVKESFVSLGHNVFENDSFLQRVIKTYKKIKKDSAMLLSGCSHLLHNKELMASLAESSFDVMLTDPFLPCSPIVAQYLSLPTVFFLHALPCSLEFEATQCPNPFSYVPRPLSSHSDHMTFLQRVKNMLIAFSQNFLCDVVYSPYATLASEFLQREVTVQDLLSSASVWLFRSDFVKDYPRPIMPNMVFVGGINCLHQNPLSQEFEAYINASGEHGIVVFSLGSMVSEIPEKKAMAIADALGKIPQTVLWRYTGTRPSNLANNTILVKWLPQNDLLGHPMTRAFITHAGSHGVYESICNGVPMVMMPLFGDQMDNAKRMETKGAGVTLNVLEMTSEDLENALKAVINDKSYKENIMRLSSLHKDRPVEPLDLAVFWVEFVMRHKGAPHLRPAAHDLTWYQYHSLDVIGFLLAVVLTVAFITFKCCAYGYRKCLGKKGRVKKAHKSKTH
The assay is described as follows: in vitro UGT1A1 inhibition assay. It counts as biochemical. The note with it: read-out: IC50 towards UGT1A1. The source says: The term “UGT1A1 inhibitor” as used herein refers to a molecule which is capable of binding to the enzyme uridine diphosphate (UDP)-glycuronosyl transferase (UGT1A1) and decrease the enzymatic activity of UGT1A1. The UGT1A1 enzyme, primarily found in the liver, is responsible for the gluronidation of bilirubin, converting it from the toxic form of bilirubin (unconjugated bilirubin) to its nontoxic, water-soluble form (conjugated bilirubin). Whether or not a particular molecule is an UGT1A1 inhibitor can be determined by examining the molecule's IC50 in vitro in common UGT1A1 inhibition assays. […] In one embodiment, the IC50 is 5 μM or less, such as 4 μM or less, such as 3 μM or less, such as 2 μM or less, for example between 0.1 μM and 2.0 μM. […] In some embodiments, the UGT1A1 inhibitor of the present disclosure is a non-competitive UGT1A1 inhibitor. In some embodiments, the UGT1A1 inhibitor is a competitive UGT1A1 inhibitor. In one embodiment, the UGT1A1 inhibitor is also SRPK1 inhibitor and/or an ABCG2 inhibitor.

The target in assay [2] is T1, UGT1A1. The assay is described as follows: Clinical study of SCO-101 with FOLFIRI: serum bilirubin / bilirubin index as surrogate of UGT1A1 activity. It counts as in vivo. Also noted: from tissue; host or cells: patients in vivo (enzyme primarily in the liver). The following applies: for mean bilirubin index score (day 12 / day 7 bilirubin serum concentration): cohort 1 (150 mg SCO-101), cycle 1; for highest bilirubin index score / lowest bilirubin index score: cohort 1, cycle 1. The protocol: The term “bilirubin index” as used herein or “bilirubin index score” which are used interchangeably, refer to a patient's rate of bilirubin normalization subsequent to administration of an UGT1A1 inhibitor to the patient. Herein, the bilirubin index is determined subsequent to administration of an UGT1A1 inhibitor to the patient for a number of consecutive days, such as 1, 2, 3, 4, 5, or 6, preferably 6 days. In some embodiments, based on 6 consecutive days of administration with an UGT1A1 inhibitor, the bilirubin index can be determined as the bilirubin serum concentration (unconjugated or total bilirubin) on day 12 divided with the bilirubin serum concentration on day 7 and thus is an indicator of how much the patients' UGT1A1 activity has normalized following cessation of treatment with the UGT1A1 inhibitor, such as SCO-101, and can be determined using bilirubin as a surrogate marker. Based on 6 consecutive days of administration with an UGT1A1 inhibitor, the bilirubin index is determined as the bilirubin serum concentration (unconjugated or total bilirubin) on day 12 divided with the bilirubin serum concentration on day 7 and thus is an indicator of how much the patients' UGT1A1 activity has normalized following cessation of SCO-101 treatment, and can be determined using bilirubin as a surrogate marker. In some embodiments, the bilirubin index is determined by comparison on bilirubin serum concentrations obtained from other days than day 7 and day 12. The bilirubin index is also referred to herein as the CT2/CT1 ratio, wherein CT1 is the plasma concentration of unconjugated bilirubin in the patient at a time point T1, whereas CT2 is the plasma concentration of unconjugated bilirubin in the patient at a time point T2 which is after discontinuing administration of the UGT1A1 inhibitor.
Bilirubin: Blood sampling for analysis of bilirubin (total, unconjugated and conjugated) were withdrawn at Screening (up to 4 weeks prior start of treatment), day 5, day 7 and day 12 in the first treatment cycle.
UGT1A1 is the primary enzyme responsible for conjugation of bilirubin and metabolism of Irinotecan's active metabolite SN-38.

Each structure is given as a SMILES string. pIC50: −log10 of the molar value.

This is an account of results in US20240277666A1, “Combination Treatments for Cancer Patients and Methods for Identifying Same” (Scandion Oncology A/S, priority 2021, published 2024).

With `O=C(Nc1cc(C(F)(F)F)cc(C(F)(F)F)c1)Nc1ccc(Br)cc1-c1nnn[nH]1` [SCO-101], the pIC50 at UGT1A1 [1] was 5.72 to 6.15. At UGT1A1 [2] (cancer patients, SCO-101 daily days 1-6), the “effect on unconjugated bilirubin serum concentration” value is “specific and dose dependent increase”. Further, the “reversibility of UGT1A1 inhibition / bilirubin increase after discontinuation of SCO-101” value on UGT1A1 [2] (cancer patients, blood bilirubin after last SCO-101 treatment) was “completely reversible”. Further, the “bilirubin index of patients with RAS mutation” value on UGT1A1 [2] (cohort 1, cycle 1, day 12 / day 7) is on record as “above 0.4”. At UGT1A1 [2] (six RAS mutated patients), the “mean bilirubin index score (day 12 / day 7 bilirubin serum concentration)” value was determined as 0.59, the “highest bilirubin index score” value came out at 0.76 and the “lowest bilirubin index score” value is 0.25. On UGT1A1 [2] (six RAS wild type patients), the “mean bilirubin index score (day 12 / day 7 bilirubin serum concentration)” value is reported as “approximately 0.15”, the “highest bilirubin index score” value turned out to be 0.28 and the “lowest bilirubin index score” value is recorded as 0.04.
